From the supplement of paper PMC10307832

Tests used:
Assay in all cases: relative viability (nuclei count vs DMSO), 5 days (fraction); higher = more cells survive
Imatinib + Alpelisib = compound: Cc1ccc(NC(=O)c2ccc(CN3CCN(C)CC3)cc2)cc1Nc1nccc(-c2cccnc2)n1 [Imatinib] + Cc1nc(NC(=O)N2CCC[C@H]2C(N)=O)sc1-c1ccnc(C(C)(C)C(F)(F)F)c1 [Alpelisib] (partner 2 µM)
In short: (§1)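 Lung cancer cell lines in 1536-well plates got either a single drug or a fixed anchor-drug dose together with five library-drug doses (not always all listed) in √10 steps, by pin tool, on the day after seeding. Nuclei were counted after 5 days, and relative viability is the treated-to-vehicle ratio of nuclei counts. Values are medians of duplicate plates.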

Imatinib + Pictilisib = compound: Cc1ccc(NC(=O)c2ccc(CN3CCN(C)CC3)cc2)cc1Nc1nccc(-c2cccnc2)n1 [Imatinib] + CS(=O)(=O)N1CCN(Cc2cc3nc(-c4cccc5[nH]ncc45)nc(N4CCOCC4)c3s2)CC1 [Pictilisib] (partner 1 µM)
In short: as §1

Imatinib + Crizotinib = compound: Cc1ccc(NC(=O)c2ccc(CN3CCN(C)CC3)cc2)cc1Nc1nccc(-c2cccnc2)n1 [Imatinib] + C[C@@H](Oc1cc(-c2cnn(C3CCNCC3)c2)cnc1N)c1c(Cl)ccc(F)c1Cl [Crizotinib] (partner 1 µM)
In short: as §1

Imatinib + Trametinib = compound: Cc1ccc(NC(=O)c2ccc(CN3CCN(C)CC3)cc2)cc1Nc1nccc(-c2cccnc2)n1 [Imatinib] + CC(=O)Nc1cccc(-n2c(=O)n(C3CC3)c(=O)c3c(Nc4ccc(I)cc4F)n(C)c(=O)c(C)c32)c1 [Trametinib] (partner 0.02 µM)
In short: as §1

Cell Line CAL-12T has a relative viability (Imatinib + Alpelisib; first compound 0.02 µM) of 1.47, a relative viability (Imatinib + Alpelisib; first compound 0.06325 µM) of 1.62 and a relative viability (Imatinib + Alpelisib; first compound 0.2 µM) of 1.42. It also gave a relative viability (Imatinib + Alpelisib; first compound 0.6325 µM) of 1.17, a relative viability (Imatinib + Alpelisib; first compound 2 µM) of 1.14 and a relative viability (Imatinib + Pictilisib; first compound 0.02 µM) of 0.507. The relative viability (Imatinib + Pictilisib; first compound 0.06325 µM) was 0.433, the relative viability (Imatinib + Pictilisib; first compound 0.2 µM) was 0.486 and the relative viability (Imatinib + Pictilisib; first compound 0.6325 µM) was 0.667. The relative viability (Imatinib + Pictilisib; first compound 2 µM) was 0.524, the relative viability (Imatinib + Crizotinib; first compound 0.02 µM) was 0.715 and the relative viability (Imatinib + Crizotinib; first compound 0.06325 µM) was 0.696. For the same cell line, the relative viability (Imatinib + Crizotinib; first compound 0.2 µM) was 1.17, the relative viability (Imatinib + Crizotinib; first compound 0.6325 µM) was 0.624 and the relative viability (Imatinib + Crizotinib; first compound 2 µM) was 0.776. The relative viability (Imatinib + Trametinib; first compound 0.02 µM) was 0.336, the relative viability (Imatinib + Trametinib; first compound 0.06325 µM) was 0.324 and the relative viability (Imatinib + Trametinib; first compound 0.2 µM) was 0.321. The relative viability (Imatinib + Trametinib; first compound 0.6325 µM) was 0.411 and the relative viability (Imatinib + Trametinib; first compound 2 µM) was 0.398.

NCI-H1792 was tested, and the relative viability (Imatinib + Alpelisib; first compound 0.02 µM) was 0.921, the relative viability (Imatinib + Alpelisib; first compound 0.06325 µM) was 0.515 and the relative viability (Imatinib + Alpelisib; first compound 0.2 µM) was 0.661. For the same cell line, the relative viability (Imatinib + Alpelisib; first compound 0.6325 µM) was 0.507, the relative viability (Imatinib + Alpelisib; first compound 2 µM) was 0.638 and the relative viability (Imatinib + Pictilisib; first compound 0.02 µM) was 0.264. It also gave a relative viability (Imatinib + Pictilisib; first compound 0.06325 µM) of 0.198, a relative viability (Imatinib + Pictilisib; first compound 0.2 µM) of 0.214 and a relative viability (Imatinib + Pictilisib; first compound 0.6325 µM) of 0.237. For the same cell line, the relative viability (Imatinib + Pictilisib; first compound 2 µM) was 0.277, the relative viability (Imatinib + Crizotinib; first compound 0.02 µM) was 1.4 and the relative viability (Imatinib + Crizotinib; first compound 0.2 µM) was 0.931. For the same cell line, the relative viability (Imatinib + Crizotinib; first compound 0.6325 µM) was 0.92, the relative viability (Imatinib + Crizotinib; first compound 2 µM) was 0.946 and the relative viability (Imatinib + Trametinib; first compound 0.02 µM) was 0.534. For the same cell line, the relative viability (Imatinib + Trametinib; first compound 0.06325 µM) was 0.311, the relative viability (Imatinib + Trametinib; first compound 0.2 µM) was 0.521 and the relative viability (Imatinib + Trametinib; first compound 2 µM) was 0.427.
